# Reference: PubChem BioAssay AID1745844 (Carcinogenic Potency Database (CPDB), 2022)
# The source made the active and inactive calls. The rule behind the calls is not given here.
# Tested on: rodent lifetime carcinogenesis bioassay, tumor incidence TD50
# Assay: carcinogenic potency in animals, long-term in vivo studies, CPDB compilation (AID 1745844)
smiles,measurement,setting,value
CC(=O)NNc1ccccc1,TD50,"mouse, strain Swiss albino, females, in drinking water, site: blood vessels, lesion: angioma, dosed 111 weeks, study length 111 weeks",117 mg/kg/day
same,TD50,"mouse, strain Swiss albino, females, in drinking water, site: blood vessels, lesion: angiosarcoma, dosed 111 weeks, study length 111 weeks",117 mg/kg/day
same,TD50,"mouse, strain Swiss albino, females, in drinking water, site: blood vessels, lesion: several types, types named in the paper, dosed 111 weeks, study length 111 weeks",49 mg/kg/day
same,TD50,"mouse, strain Swiss albino, females, in drinking water, site: liver, lesion: angioma, dosed 111 weeks, study length 111 weeks",105 mg/kg/day
same,TD50,"mouse, strain Swiss albino, females, in drinking water, site: liver, lesion: angiosarcoma, dosed 111 weeks, study length 111 weeks",105 mg/kg/day
same,TD50,"mouse, strain Swiss albino, females, in drinking water, site: liver, lesion: several types, types named in the paper, dosed 111 weeks, study length 111 weeks",44.8 mg/kg/day
same,TD50,"mouse, strain Swiss albino, females, in drinking water, site: lung, lesion: adenoma, dosed 111 weeks, study length 111 weeks",413 mg/kg/day (inactive)
same,TD50,"mouse, strain Swiss albino, males, in drinking water, site: blood vessels, lesion: angioma, dosed 106 weeks, study length 106 weeks",113 mg/kg/day
same,TD50,"mouse, strain Swiss albino, males, in drinking water, site: blood vessels, lesion: angiosarcoma, dosed 106 weeks, study length 106 weeks",161 mg/kg/day
same,TD50,"mouse, strain Swiss albino, males, in drinking water, site: blood vessels, lesion: several types, types named in the paper, dosed 106 weeks, study length 106 weeks",59.8 mg/kg/day
same,TD50,"mouse, strain Swiss albino, males, in drinking water, site: liver, lesion: angioma, dosed 106 weeks, study length 106 weeks",128 mg/kg/day
same,TD50,"mouse, strain Swiss albino, males, in drinking water, site: liver, lesion: angiosarcoma, dosed 106 weeks, study length 106 weeks",146 mg/kg/day
same,TD50,"mouse, strain Swiss albino, males, in drinking water, site: liver, lesion: several types, types named in the paper, dosed 106 weeks, study length 106 weeks",62.1 mg/kg/day
same,carcinogen call,"mouse, strain Swiss albino, males, in drinking water, site: lung, lesion: adenocarcinoma, dosed 106 weeks, study length 106 weeks",negative (inactive)
same,carcinogen call,"mouse, strain Swiss albino, males, in drinking water, site: lung, lesion: adenoma, dosed 106 weeks, study length 106 weeks",negative (inactive)
CCCCOC(=O)c1ccc(O)cc1,TD50,"mouse, strain ICR/Jcl, females, in feed, site: any site (literature study), lesion: several types, types named in the paper, dosed 102 weeks, study length 106 weeks",2720 mg/kg/day (inactive)
same,carcinogen call,"mouse, strain ICR/Jcl, females, in feed, site: liver, lesion: one or several types, types not named, dosed 102 weeks, study length 106 weeks",negative (inactive)
same,TD50,"mouse, strain ICR/Jcl, females, in feed, site: lung, lesion: one or several types, types not named, dosed 102 weeks, study length 106 weeks",5100 mg/kg/day (inactive)
same,TD50,"mouse, strain ICR/Jcl, males, in feed, site: any site (literature study), lesion: several types, types named in the paper, dosed 102 weeks, study length 106 weeks",5240 mg/kg/day (inactive)
same,TD50,"mouse, strain ICR/Jcl, males, in feed, site: liver, lesion: one or several types, types not named, dosed 102 weeks, study length 106 weeks",27400 mg/kg/day (inactive)
same,TD50,"mouse, strain ICR/Jcl, males, in feed, site: lung, lesion: one or several types, types not named, dosed 102 weeks, study length 106 weeks",119000 mg/kg/day (inactive)
O=[O+][O-],TD50,"mouse, strain B6C3F1, females, inhaled, site: lung, lesion: alveolar/bronchiolar adenoma + alveolar/bronchiolar carcinoma, dosed 105 weeks, study length 105 weeks",1.88 mg/kg/day
same,TD50,"mouse, strain B6C3F1, females, inhaled, site: lung, lesion: alveolar/bronchiolar adenoma + alveolar/bronchiolar carcinoma, dosed 130 weeks, study length 130 weeks",2.09 mg/kg/day
same,TD50,"mouse, strain B6C3F1, females, inhaled, site: lung, lesion: alveolar/bronchiolar adenoma, dosed 130 weeks, study length 130 weeks",1.78 mg/kg/day
same,TD50,"mouse, strain B6C3F1, females, inhaled, site: lung, lesion: alveolar/bronchiolar carcinoma, dosed 105 weeks, study length 105 weeks",2.75 mg/kg/day
same,TD50,"mouse, strain B6C3F1, females, inhaled, site: uterus, lesion: endometrial stromal polyp, dosed 105 weeks, study length 105 weeks",6.49 mg/kg/day
same,TD50,"mouse, strain B6C3F1, males, inhaled, site: any site (literature study), lesion: several types, types named in the paper, dosed 104 weeks, study length 104 weeks",0.997 mg/kg/day
same,TD50,"mouse, strain B6C3F1, males, inhaled, site: any site (literature study), lesion: several types, types named in the paper, dosed 130 weeks, study length 130 weeks",1.54 mg/kg/day
same,TD50,"mouse, strain B6C3F1, males, inhaled, site: liver + mesentery + spleen, lesion: hemangiosarcoma, dosed 104 weeks, study length 104 weeks",0.314 mg/kg/day
same,TD50,"mouse, strain B6C3F1, males, inhaled, site: liver, lesion: hepatocellular adenoma + hepatoblastoma + hepatocellular carcinoma, dosed 104 weeks, study length 104 weeks",1.68 mg/kg/day
same,TD50,"mouse, strain B6C3F1, males, inhaled, site: liver, lesion: hepatocellular adenoma + hepatoblastoma + hepatocellular carcinoma, dosed 130 weeks, study length 130 weeks",2.02 mg/kg/day
same,TD50,"mouse, strain B6C3F1, males, inhaled, site: lung, lesion: alveolar/bronchiolar adenoma + alveolar/bronchiolar carcinoma, dosed 104 weeks, study length 104 weeks",0.894 mg/kg/day
same,TD50,"mouse, strain B6C3F1, males, inhaled, site: lung, lesion: alveolar/bronchiolar adenoma + alveolar/bronchiolar carcinoma, dosed 130 weeks, study length 130 weeks",0.961 mg/kg/day
same,TD50,"mouse, strain B6C3F1, males, inhaled, site: lung, lesion: alveolar/bronchiolar carcinoma, dosed 130 weeks, study length 130 weeks",0.633 mg/kg/day
same,carcinogen call,"rat, strain Fischer 344, females, inhaled, site: any site (literature study), lesion: several types, types named in the paper, dosed 104 weeks, study length 104 weeks",negative (inactive)
same,carcinogen call,"rat, strain Fischer 344, females, inhaled, site: any site (literature study), lesion: several types, types named in the paper, dosed 124 weeks, study length 124 weeks",negative (inactive)
same,TD50,"rat, strain Fischer 344, males, inhaled, site: any site (literature study), lesion: several types, types named in the paper, dosed 105 weeks, study length 105 weeks",1.2 mg/kg/day
same,TD50,"rat, strain Fischer 344, males, inhaled, site: any site (literature study), lesion: several types, types named in the paper, dosed 122 weeks, study length 124 weeks",0.138 mg/kg/day (inactive)
same,TD50,"rat, strain Fischer 344, males, inhaled, site: liver, lesion: hepatocellular adenoma + hepatoblastoma + hepatocellular carcinoma, dosed 122 weeks, study length 124 weeks",2.41 mg/kg/day
same,TD50,"rat, strain Fischer 344, males, inhaled, site: thyroid gland, lesion: c-cell adenoma + c-cell carcinoma, dosed 105 weeks, study length 105 weeks",0.0156 mg/kg/day (inactive)
same,TD50,"rat, strain Fischer 344, males, inhaled, site: thyroid gland, lesion: c-cell adenoma, dosed 105 weeks, study length 105 weeks",0.019 mg/kg/day
same,TD50,"rat, strain Sprague-Dawley, males, inhaled, site: lung, lesion: adenoma, dosed 86 weeks, study length 86 weeks",0.204 mg/kg/day
CCCCC(CC)CO (stereo not given),TD50,"mouse, strain B6C3F1, females, by gavage, site: liver, lesion: hepatocellular carcinoma, dosed 80 weeks, study length 80 weeks",1680 mg/kg/day
same,TD50,"mouse, strain B6C3F1, males, by gavage, site: liver, lesion: several types, types named in the paper, dosed 80 weeks, study length 80 weeks",1710 mg/kg/day (inactive)
same,carcinogen call,"rat, strain Fischer 344, females, by gavage, site: liver, lesion: hepatocellular carcinoma, dosed 104 weeks, study length 104 weeks",negative (inactive)
same,carcinogen call,"rat, strain Fischer 344, males, by gavage, site: liver, lesion: several types, types named in the paper, dosed 104 weeks, study length 104 weeks",negative (inactive)
C=Cc1cccc[n+]1[O-],TD50,"mouse, strain ICI, females, i.v., site: any site (literature study), lesion: benign tumor, dosed 75 weeks, study length 104 weeks",1690 mg/kg/day (inactive)
same,carcinogen call,"mouse, strain ICI, females, i.v., site: any site (literature study), lesion: malignant tumor, dosed 75 weeks, study length 104 weeks",negative (inactive)
same,carcinogen call,"mouse, strain ICI, females, i.v., site: lung, lesion: adenoma, dosed 75 weeks, study length 104 weeks",negative (inactive)
same,carcinogen call,"rat, strain Wistar, females, i.v., site: any site (literature study), lesion: benign tumor, dosed 75 weeks, study length 104 weeks",negative (inactive)
same,TD50,"rat, strain Wistar, females, i.v., site: any site (literature study), lesion: malignant tumor, dosed 75 weeks, study length 104 weeks",175 mg/kg/day (inactive)
CCC[CH2][Sn]([CH2]CCC)([O]C(C)=O)[O]C(C)=O,TD50,"mouse, strain B6C3F1, females, in feed, site: any site (literature study), lesion: several types, types named in the paper, dosed 78 weeks, study length 92 weeks",29.6 mg/kg/day
same,TD50,"mouse, strain B6C3F1, females, in feed, site: liver, lesion: hepatocellular adenoma + hepatocellular carcinoma + neoplastic nodule, dosed 78 weeks, study length 92 weeks",31.6 mg/kg/day
same,TD50,"mouse, strain B6C3F1, females, in feed, site: liver, lesion: hepatocellular adenoma, dosed 78 weeks, study length 92 weeks",31.6 mg/kg/day (inactive)
same,TD50,"mouse, strain B6C3F1, males, in feed, site: any site (literature study), lesion: several types, types named in the paper, dosed 78 weeks, study length 92 weeks",178 mg/kg/day (inactive)
same,TD50,"mouse, strain B6C3F1, males, in feed, site: liver, lesion: hepatocellular adenoma + hepatocellular carcinoma + neoplastic nodule, dosed 78 weeks, study length 92 weeks",29.2 mg/kg/day
same,TD50,"rat, strain Fischer 344, females, in feed, site: liver, lesion: hepatocellular adenoma + hepatocellular carcinoma + neoplastic nodule, dosed 78 weeks, study length 104 weeks",94.4 mg/kg/day
same,carcinogen call,"rat, strain Fischer 344, males, in feed, site: any site (literature study), lesion: several types, types named in the paper, dosed 78 weeks, study length 104 weeks",negative (inactive)
C=C(C)C(=O)Nc1ccc(Cl)c(Cl)c1,carcinogen call,"mouse, strain B6AKF1, females, oral dosing, site: any site (literature study), lesion: several types, types named in the paper, dosed 76 weeks, study length 76 weeks",negative (inactive)
same,carcinogen call,"mouse, strain B6AKF1, females, oral dosing, site: liver, lesion: hepatoma, dosed 76 weeks, study length 76 weeks",negative (inactive)
same,carcinogen call,"mouse, strain B6AKF1, females, oral dosing, site: lung, lesion: adenoma, dosed 76 weeks, study length 76 weeks",negative (inactive)
same,TD50,"mouse, strain B6AKF1, males, oral dosing, site: any site (literature study), lesion: several types, types named in the paper, dosed 76 weeks, study length 76 weeks",49.1 mg/kg/day (inactive)
same,TD50,"mouse, strain B6AKF1, males, oral dosing, site: liver, lesion: hepatoma, dosed 76 weeks, study length 76 weeks",27.1 mg/kg/day (inactive)
same,carcinogen call,"mouse, strain B6AKF1, males, oral dosing, site: lung, lesion: adenoma, dosed 76 weeks, study length 76 weeks",negative (inactive)
same,carcinogen call,"mouse, strain B6C3F1, females, oral dosing, site: any site (literature study), lesion: one or several types, types not named, dosed 76 weeks, study length 76 weeks",negative (inactive)
same,carcinogen call,"mouse, strain B6C3F1, females, oral dosing, site: liver, lesion: hepatoma, dosed 76 weeks, study length 76 weeks",negative (inactive)
same,carcinogen call,"mouse, strain B6C3F1, females, oral dosing, site: lung, lesion: several types, types named in the paper, dosed 76 weeks, study length 76 weeks",negative (inactive)
same,TD50,"mouse, strain B6C3F1, males, oral dosing, site: any site (literature study), lesion: several types, types named in the paper, dosed 76 weeks, study length 76 weeks",5.39 mg/kg/day (inactive)
same,TD50,"mouse, strain B6C3F1, males, oral dosing, site: liver, lesion: hepatoma, dosed 76 weeks, study length 76 weeks",15.2 mg/kg/day (inactive)
same,TD50,"mouse, strain B6C3F1, males, oral dosing, site: lung, lesion: adenoma, dosed 76 weeks, study length 76 weeks",23.7 mg/kg/day (inactive)
